The values that follow come from publication PMC8162404, “Proteomimetic surface fragments distinguish targets by function” (Chemical Science, 2020).

The target in one experiment is T1, Gal-1 (Homo sapiens, UniProt P09382).
T1 construct: made in house; host or cells: E. coli BL21(DE3)
T1 sequence (P09382 whole entry): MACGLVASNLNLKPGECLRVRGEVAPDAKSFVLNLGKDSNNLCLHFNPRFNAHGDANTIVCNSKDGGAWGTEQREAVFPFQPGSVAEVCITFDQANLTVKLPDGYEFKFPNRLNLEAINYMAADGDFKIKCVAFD
Put plainly: Pull-down assay with immobilized protein and LSM libraries. The note with it: H12 library; 1:1 binding assumed; read-out: Surface mapping KD (apparent). The experiment is classed as binding. How it is done: Pull-down assays with immobilized test proteins and foldameric LSM libraries were carried out. Proteins were equilibrated with LSM probes, and equilibrium bound fractions (FB) were determined from the unbound fractions measured by HPLC-MS methods. Hits were corrected with background binding of the resin. The protocol allowed all binding events to equilibrate irrespective of affinity, specificity, and binding kinetics. This was essential to judge overall druggability and promiscuity. Importantly, the concentration of protein and the total concentration of foldameric LSMs were equimolar, which minimized competition between the probes. This experimental setup approximated independent binding of individual library members. Results were visualized as heat maps of dissociation constants (Fig. 3).
Pull-down assay and data analysis
Pull-down assay. LSM sublibraries were screened separately as previously described.(2) Experiments were performed in the following buffers: (i) 20 mM pH 7.4 HEPES, 150 mM NaCl, 5 mM CaCl2 for CaM; (ii) 50 mM pH 7.4 HEPES, 150 mM NaCl, 1 mM TCEP, 1 mM CaCl2 for S100 proteins; (iii) 20 mM pH 7.4 HEPES, 150 mM NaCl, 1 mM TCEP for Gal-1 and (iv) 20 mM pH 7.4 HEPES, 150 mM NaCl for RecQ-WH. Assays were performed in paper filter spin cups (Thermo Scientific) with sample volumes of 100 µl. Hexahistidine-tagged proteins were immobilized on previously washed Co-NTA resin (TALON, Takara Bio USA, Inc., Mountain View, CA) in 64 µM final concentration. LSM sublibrary was added, in which each of the 64 library members were used at a concentration of 1 µM. Samples were incubated at room temperature for 30 min with shaking at 100 rpm. Then, samples were centrifuged at 1000 rpm for 2 min and washed with 100 µl pull-down buffer to remove unbound compounds.
The control experiments were performed using the same compounds and the resin but without the immobilized protein. In case of competitive assays, competitor peptides were added to LSM sublibrary samples in 200 µM final concentration. In the case of Gal-1, lactose (competitor) was used in a concentration of 10 mM. Experiments were performed at least twice. Mean […]
LC-MS methods and parameters. HPLC/ESI-MS analysis was used to characterize the samples from the pull-down assay. LC-MS analysis was performed with a Thermo Scientific Dionex UltiMate 3000 HPLC system interfaced to an LTQ ion trap mass spectrometer (Thermo Electron Corp., San Jose, CA, USA). Samples were injected onto an Aeris Widepore XB-C18 (250 x 4.6 mm) analytical HPLC column using gradient elution 5-80 % solution B during 25 minutes. For pull-down samples, eluent composition was 0.1% acetic acid in distilled water (Solution A) and 0.1% acetic acid in acetonitrile (solution B). Mass spectra were acquired in full scan mode from 200 to 2000 m/z range. For overlapping peaks, selective reaction monitoring (SRM) was […]
MS data analysis. Thermo Xcalibur 2.2 software was used for peak identification and integration. The majority of the foldameric fragments could be resolved independently via HPLC-MS/MS measurements based on molecular weight, MS fragmentation pattern and retention time. Peaks of some foldamers with β3-hIle or β3-hLeu in position R2 could not be resolved, these were integrated and averaged. In the processing method, each sample component was associated to a chromatographic peak based on previously identified mass (m/z) and retention time (ref (2) and Table S7-10). Using ICIS peak detection algorithm, the general detection and integration criteria were: smoothing points: 5, baseline window: 80, area noise factor: 5, peak noise factor: 10. Using these processing setups, all raw data files were reprocessed together and analyzed. Errors in peak identification during the automatic processing were corrected manually.
Calculation of the discussed parameters
1. Bound fractions (FB.) were calculated from the HPLC-MS intensity loss of the LSM probes compared to the control where no protein was immobilized to the resin: […]
With `CC[C@H](C)[C@@H](CC(=O)N[C@H]1CCC[C@@H]1C(=O)N[C@H]1CCC[C@@H]1C(=O)N[C@@H](CC(N)=O)CC(=O)N[C@H]1CCC[C@@H]1C(=O)N[C@H]1CCC[C@@H]1C(N)=O)NC(=O)[C@H]1CCC[C@@H]1NC(=O)[C@H]1CCC[C@@H]1N` [H12 IN], the Kd is 401 µM.

On to `CC(C)[C@@H](CC(=O)N[C@H]1CCC[C@@H]1C(=O)N[C@H]1CCC[C@@H]1C(=O)N[C@@H](CC(N)=O)CC(=O)N[C@H]1CCC[C@@H]1C(=O)N[C@H]1CCC[C@@H]1C(N)=O)NC(=O)[C@H]1CCC[C@@H]1NC(=O)[C@H]1CCC[C@@H]1N` [H12 VN], for which the Kd was found to be 497 µM.

With `NCCCC[C@@H](CC(=O)N[C@H]1CCC[C@@H]1C(=O)N[C@H]1CCC[C@@H]1C(N)=O)NC(=O)[C@H]1CCC[C@@H]1NC(=O)[C@H]1CCC[C@@H]1NC(=O)C[C@H](CC(N)=O)NC(=O)[C@H]1CCC[C@@H]1NC(=O)[C@H]1CCC[C@@H]1N` [H12 NK], the Kd came out at 430 µM.

Turning to `CC(C)[C@@H](CC(=O)N[C@H]1CCC[C@@H]1C(=O)N[C@H]1CCC[C@@H]1C(=O)N[C@H](CC(=O)N[C@H]1CCC[C@@H]1C(=O)N[C@H]1CCC[C@@H]1C(N)=O)[C@@H](C)O)NC(=O)[C@H]1CCC[C@@H]1NC(=O)[C@H]1CCC[C@@H]1N` [H12 VT], the Kd was 432 µM.

As to `C[C@@H](CC(=O)N[C@H]1CCC[C@@H]1C(=O)N[C@H]1CCC[C@@H]1C(=O)N[C@@H](CCC(=O)O)CC(=O)N[C@H]1CCC[C@@H]1C(=O)N[C@H]1CCC[C@@H]1C(N)=O)NC(=O)[C@H]1CCC[C@@H]1NC(=O)[C@H]1CCC[C@@H]1N` [H12 AE], the Kd was found to be 388 µM.

Regarding `C[C@@H](CC(=O)N[C@H]1CCC[C@@H]1C(=O)N[C@H]1CCC[C@@H]1C(N)=O)NC(=O)[C@H]1CCC[C@@H]1NC(=O)[C@H]1CCC[C@@H]1NC(=O)C[C@H](CCC(=O)O)NC(=O)[C@H]1CCC[C@@H]1NC(=O)[C@H]1CCC[C@@H]1N` [H12 EA], the Kd worked out at 340 µM.

As to `C[C@@H](CC(=O)N[C@H]1CCC[C@@H]1C(=O)N[C@H]1CCC[C@@H]1C(=O)N[C@@H](CC(N)=O)CC(=O)N[C@H]1CCC[C@@H]1C(=O)N[C@H]1CCC[C@@H]1C(N)=O)NC(=O)[C@H]1CCC[C@@H]1NC(=O)[C@H]1CCC[C@@H]1N` [H12 AN], the Kd was 330 µM.

Consider `NC(=O)[C@H]1CCC[C@@H]1NC(=O)[C@H]1CCC[C@@H]1NC(=O)C[C@H](Cc1ccc(O)cc1)NC(=O)[C@H]1CCC[C@@H]1NC(=O)[C@H]1CCC[C@@H]1NC(=O)C[C@H](CCC(=O)O)NC(=O)[C@H]1CCC[C@@H]1NC(=O)[C@H]1CCC[C@@H]1N` [H12 EY], for which the Kd amounted to 260 µM.

On to `N=C(N)NCCC[C@@H](CC(=O)N[C@H]1CCC[C@@H]1C(=O)N[C@H]1CCC[C@@H]1C(=O)N[C@@H](CO)CC(=O)N[C@H]1CCC[C@@H]1C(=O)N[C@H]1CCC[C@@H]1C(N)=O)NC(=O)[C@H]1CCC[C@@H]1NC(=O)[C@H]1CCC[C@@H]1N` [H12 RS], for which the Kd amounted to 242 µM.

Regarding `CC(C)C[C@@H](CC(=O)N[C@H]1CCC[C@@H]1C(=O)N[C@H]1CCC[C@@H]1C(=O)N[C@@H](CCC(=O)O)CC(=O)N[C@H]1CCC[C@@H]1C(=O)N[C@H]1CCC[C@@H]1C(N)=O)NC(=O)[C@H]1CCC[C@@H]1NC(=O)[C@H]1CCC[C@@H]1N` [H12 LE], the Kd is 335 µM.

Take `NC(=O)C[C@@H](CC(=O)N[C@H]1CCC[C@@H]1C(=O)N[C@H]1CCC[C@@H]1C(N)=O)NC(=O)[C@H]1CCC[C@@H]1NC(=O)[C@H]1CCC[C@@H]1NC(=O)C[C@H](CC(=O)O)NC(=O)[C@H]1CCC[C@@H]1NC(=O)[C@H]1CCC[C@@H]1N` [H12 DN]: the Kd amounted to 226 µM.

As for `C[C@@H](CC(=O)N[C@H]1CCC[C@@H]1C(=O)N[C@H]1CCC[C@@H]1C(N)=O)NC(=O)[C@H]1CCC[C@@H]1NC(=O)[C@H]1CCC[C@@H]1NC(=O)C[C@H](CC(=O)O)NC(=O)[C@H]1CCC[C@@H]1NC(=O)[C@H]1CCC[C@@H]1N` [H12 DA], the Kd is 248 µM.

Consider `NC(=O)[C@H]1CCC[C@@H]1NC(=O)[C@H]1CCC[C@@H]1NC(=O)C[C@H](Cc1ccc(O)cc1)NC(=O)[C@H]1CCC[C@@H]1NC(=O)[C@H]1CCC[C@@H]1NC(=O)C[C@H](CC(=O)O)NC(=O)[C@H]1CCC[C@@H]1NC(=O)[C@H]1CCC[C@@H]1N` [H12 DY], for which the Kd was found to be 205 µM.

Turning to `CSCC[C@@H](CC(=O)N[C@H]1CCC[C@@H]1C(=O)N[C@H]1CCC[C@@H]1C(N)=O)NC(=O)[C@H]1CCC[C@@H]1NC(=O)[C@H]1CCC[C@@H]1NC(=O)C[C@H](CCC(=O)O)NC(=O)[C@H]1CCC[C@@H]1NC(=O)[C@H]1CCC[C@@H]1N` [H12 EM], the Kd stood at 251 µM.

On to `CC[C@H](C)[C@@H](CC(=O)N[C@H]1CCC[C@@H]1C(=O)N[C@H]1CCC[C@@H]1C(=O)N[C@@H](CCC(N)=O)CC(=O)N[C@H]1CCC[C@@H]1C(=O)N[C@H]1CCC[C@@H]1C(N)=O)NC(=O)[C@H]1CCC[C@@H]1NC(=O)[C@H]1CCC[C@@H]1N` [H12 IQ], for which the Kd came to 446 µM.

On to `CC(C)[C@@H](CC(=O)N[C@H]1CCC[C@@H]1C(=O)N[C@H]1CCC[C@@H]1C(=O)N[C@@H](CO)CC(=O)N[C@H]1CCC[C@@H]1C(=O)N[C@H]1CCC[C@@H]1C(N)=O)NC(=O)[C@H]1CCC[C@@H]1NC(=O)[C@H]1CCC[C@@H]1N` [H12 VS], for which the Kd came to 408 µM.

As to `NCCCC[C@@H](CC(=O)N[C@H]1CCC[C@@H]1C(=O)N[C@H]1CCC[C@@H]1C(N)=O)NC(=O)[C@H]1CCC[C@@H]1NC(=O)[C@H]1CCC[C@@H]1NC(=O)C[C@H](CCC(=O)O)NC(=O)[C@H]1CCC[C@@H]1NC(=O)[C@H]1CCC[C@@H]1N` [H12 EK], the Kd stood at 200 µM.

As for `NC(=O)[C@H]1CCC[C@@H]1NC(=O)[C@H]1CCC[C@@H]1NC(=O)C[C@H](Cc1ccccc1)NC(=O)[C@H]1CCC[C@@H]1NC(=O)[C@H]1CCC[C@@H]1NC(=O)C[C@H](CCC(=O)O)NC(=O)[C@H]1CCC[C@@H]1NC(=O)[C@H]1CCC[C@@H]1N` [H12 EF], the Kd was 245 µM.

As for `NC(=O)[C@H]1CCC[C@@H]1NC(=O)[C@H]1CCC[C@@H]1NC(=O)C[C@H](Cc1c[nH]c2ccccc12)NC(=O)[C@H]1CCC[C@@H]1NC(=O)[C@H]1CCC[C@@H]1NC(=O)C[C@H](CC(=O)O)NC(=O)[C@H]1CCC[C@@H]1NC(=O)[C@H]1CCC[C@@H]1N` [H12 DW], the Kd came out at 240 µM.

Take `NC(=O)[C@H]1CCC[C@@H]1NC(=O)[C@H]1CCC[C@@H]1NC(=O)C[C@H](CO)NC(=O)[C@H]1CCC[C@@H]1NC(=O)[C@H]1CCC[C@@H]1NC(=O)C[C@H](CC(=O)O)NC(=O)[C@H]1CCC[C@@H]1NC(=O)[C@H]1CCC[C@@H]1N` [H12 DS]: the Kd stood at 199 µM.

For the compound `NC(=O)CC[C@@H](CC(=O)N[C@H]1CCC[C@@H]1C(=O)N[C@H]1CCC[C@@H]1C(N)=O)NC(=O)[C@H]1CCC[C@@H]1NC(=O)[C@H]1CCC[C@@H]1NC(=O)C[C@H](CCC(=O)O)NC(=O)[C@H]1CCC[C@@H]1NC(=O)[C@H]1CCC[C@@H]1N` [H12 EQ], the Kd amounted to 236 µM.

Still in this experiment, the particulars now being: H14 library; 1:1 binding assumed; read-out: Surface mapping KD (apparent).
On to `C[C@@H](CC(=O)N[C@H]1CCCC[C@@H]1C(=O)N[C@H]1CCCC[C@@H]1C(=O)N[C@@H](CC(=O)O)CC(=O)N[C@H]1CCCC[C@@H]1C(N)=O)NC(=O)[C@H]1CCCC[C@@H]1N` [H14 AD], for which the Kd amounted to 168 µM.

As to `CSCC[C@@H](CC(=O)N[C@H]1CCCC[C@@H]1C(=O)N[C@H]1CCCC[C@@H]1C(=O)N[C@@H](CCC(=O)O)CC(=O)N[C@H]1CCCC[C@@H]1C(N)=O)NC(=O)[C@H]1CCCC[C@@H]1N` [H14 ME], the Kd turned out to be 250 µM.

Still in this experiment, the particulars now being: read-out: KD estimated by pull-down experiments.
Regarding `NC(=O)[C@H]1CCCC[C@@H]1NC(=O)C[C@H](Cc1c[nH]c2ccccc12)NC(=O)[C@H]1CCCC[C@@H]1NC(=O)[C@H]1CCCC[C@@H]1NC(=O)C[C@H](Cc1c[nH]c2ccccc12)NC(=O)[C@H]1CCCC[C@@H]1N` [1b], the Kd is 30 to 40 µM.
